Test results: US20250154110A1, “CLAUDIN INHIBITORS AND METHODS OF USE THEREOF” (The University of Chicago, priority 2021, published 2025)

Legend:
claudin-15 = molecular target: T1, claudin-15 (Homo sapiens, UniProt P56746); test: TER across MDCK I monolayers induced to express claudin-15; format: cell-based; details: FIG. 20; concentrations lower than 100 μM; resistance normalized to vehicle
T1 construct: expressed in transfected cells; host or cells: Madin-Darby Canine Kidney (MDCK) I cells, doxycycline-induced expression
T1 sequence (P56746 1-228): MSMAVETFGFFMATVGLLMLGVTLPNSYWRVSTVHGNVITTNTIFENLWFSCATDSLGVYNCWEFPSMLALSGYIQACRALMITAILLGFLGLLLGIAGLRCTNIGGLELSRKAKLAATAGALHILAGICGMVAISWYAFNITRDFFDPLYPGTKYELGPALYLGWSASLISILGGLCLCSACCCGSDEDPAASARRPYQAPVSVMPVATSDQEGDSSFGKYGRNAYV
Excerpt: Electrical measures are used to assess the flow of ions through the claudin channels. The most commonly used measurement in the tight junction field is transepithelial electrical resistance (TER). These assays can be performed using epithelial cells grown on permeable supports (in vitro) or using intact tissue from the GI tract mounted across apertures (ex vivo).
Two different Madin-Darby Canine Kidney (MDCK) I cell lines were used, which respectively express either claudin-2 or -15 when grown in the presence of doxycycline. These cells are useful in assessing the specificity of molecule effects on claudin-2 versus claudin-15. Caco-2 BBe epithelial cells, which normally express claudin-2 and some claudin-15, were also used to better understand the utility of these molecules in blocking claudins in the gastrointestinal (GI) tract. Caco-2 BBe and MDCK cells were grown on 0.33 cm^2 polycarbonate semi-permeable membranes with 0.4 μm pores (Corning Life Sciences, Corning, NY) and used 4 days (MDCK) or 3 weeks (Caco-2 BBe) after plating. […]
Molecules were solubilized in vehicle (dimethylsulfoxide (DMSO)) and applied to both sides of the epithelial monolayer after first measuring TER at t=0 (FIGS. 17 and 18). […] Readings were performed for at least 3 hours after application to rule out epithelial cell injury, which would reduce TER. […]

mouse mucosa = test: TER of mouse duodenum mucosa mounted in Ussing chambers; details: FIG. 22, 100 μM added bilaterally, versus vehicle, P<0.01
Excerpt: The same techniques to measure TER and ion selectivity also apply to intact mucosa isolated from mice. The only significant difference is the tissue was first stripped of its muscularis propria and mounted in chambers, known as Ussing chambers. The same techniques were used to measure ion selectivity. Identical solutions were used, but also bubbled with 100% oxygen.
For TER measurements, duodenum segments were stripped of muscularis propria and mounted in Ussing chambers, and equilibrated in oxygenated HBSS for 15 min at 37° C. Vehicle control solution (DMSO) or the same solution containing 100 μM NSC 67736 were then added bilaterally. TER was recorded using current clamp pulses from 0 to 10 μA and Vrev was recorded by clamping current to 0. Electrode bridges were made 3% agarose KCl.

[1] = test system: colonoids derived from a patient with inflammatory bowel disease; test: Organoid shrinking assay in colonoids after Na+ to NMDG+ buffer exchange; format: cell-based, human; details: FIG. 25
Excerpt: For this study, organoids derived from human colon biopsies (colonoids) were first equilibrated in steady-state with Na^+ as the predominant extracellular cation. Extraluminal Na^+ was then replaced with N-methyl-D-glucamine (NMDG^+) by buffer exchange. The buffer exchange generates a large concentration gradient for Na^+ to diffuse out of the organoid lumen. […] See, for example, FIG. 24. As a result, the net Na^+ flux across tight junctions creates an osmotic gradient for water to exit the organoid through tight junctions, causing organoids to shrink. The size of organoids is measured by time-lapse microscopy, and the rate and extent of shrinkage can be determined as an assay of claudin permeability. Reduced rate and extent of shrinkage indicates reduced permeability.
Colonoids derived from a patient with inflammatory bowel disease were first equilibrated in steady-state with Na^+ containing media. Equilibrated colonoids were treated with NSC 73446 or a vehicle control and the extraluminal Na^+ was then replaced with N-methyl-D-glucamine (NMDG^+) by buffer exchange. As is apparent from the results set forth in FIG. 25, water transport across human epithelium was modulated by NSC 73446.

For `O=C(Nc1cccc(C(=O)Nc2cc(C3=NCCN3)cc(C3=NCCN3)c2)c1)Nc1cccc(C(=O)Nc2cc(C3=NCCN3)cc(C3=NCCN3)c2)c1` [NSC 53299], the “dose response of TER” value (claudin-15) was “effective at low micromolar concentrations”.

In the case of `Cl.Cl.O=C(Nc1ccc(C(=O)Nc2ccc(C3=NCCCN3)cc2)cc1)Nc1ccc(C2=NCCCN2)cc1` [NSC 67736], the “change in TER (barrier function) in mouse mucosa” value (mouse mucosa) is reported as “increases barrier function”.

With `CCCNC(=O)c1cc(NC(=O)Nc2ccc(C3=NCCCN3)cc2)cc(NC(=O)Nc2ccc(C3=NCCCN3)cc2)c1.Cl` [NSC 73446] the “water transport across human epithelium” value ([1]; inferred from colonoid size change) was “reduces water transport out of the lumen of the colonoid” and the “colonoid size change (rate and extent of shrinkage)” value ([1]; time-lapse microscopy, relative to vehicle control) was “minimizes the rate and extent of colonoid size decrease”.
